Measurements from patent US5599553A, “Local drug delivery film for periodontal treatment” (Dong Kook Pharmaceutical Co., Ltd., priority 1992, dated 1997).

How the values were obtained:
[1] = system: human gingival fibroblast; experiment: Rapid colorimetric assay for cellular growth survival (MTT)
Protocol: The floating solution obtained was devided into microtest plate well (obtained from Nuck, Denmark) as much as 2.5×10cell/well using the standard blood corpuscle calculation method so that MEM containing 10% fatal calf serum, peniciline 10 units/ml, streptomycine 100 μg/ml and fungizone 0.2 μl/ml became containing 2500, 5000, 10000, 15000, 20000, and 30000 cell per 200 ml and the resulting solution was incubated. Culture solution was changed next day. After 2 days, culture solution was removed and washed with HBSS. […] This was incubated in incubator at 37° C. […] As control group, MEM culture solution well was used every test. All test results were calculated as percentage unit to control group.

[2] = system: human gingival fibroblast; experiment: Cytotoxic inhibition activity, [3H]-thymidine incorporation
Protocol: Human gingival fibroblast was cultivated and divided into 24 multi-well dish as much as 1×10 ^5 cell/well each. Medium was chant ed next day. After 3 days, medium was removed and washed with Hank's balanced salt solution (hereinafter it is abbreviated to HBSS). […] After 2 hours, said solutions were stood at 4° C. for 10 min using ice cold 5% Trichloroacetic acid (TCA) 3 ml. After washing 3 or 4 times with TCA, removed TCA, and dissolved gingival fibroblast by 0.5N-NaOH 1 ml at 37° C. for 30 min. 50 μl of said solution was taken, added 4 ml of cocktail solution to said solution and count per minute was measured by liquid scintillation counter.

[3] = system: Actinobacillus actinomycetemcomitans; experiment: Susceptibility test of antibiotics / MIC of minocycline; assay type: cell-based
Protocol: (§1) At first, the minimal inhibitory concentration (hereinafter it is abbreviated to MIC) of minocycline for bacilli, especially Antinobacillus actinomycetemcomitans as main bacillus and the minimum period to optimum treatment effect with MIC were examined. […] Also, it was reported by Goodson et al. that the concentration more than MIC has to be sustained to inhibit growth of periodontal bacillus for at least 48 hours, especially at least 10 days for optimum treatment effect. Accordingly, local drug delivery should sustain the concentration of minocyclne in the periodontal pocket at least 4 μg/ml for at least 48 hours, and especially more than 10 days to optimize treatment effect. So the present local drug delivery was examined to learn if it coincided with the standard or not.

[4] = system: 139 kinds of tested bacilli; experiment: Susceptibility test of antibiotics to bacilli in mouth; assay type: cell-based
Protocol: as §1

CN(C)c1ccc(O)c2c1C[C@H]1C[C@H]3[C@H](N(C)C)C(=O)C(C(N)=O)=C(O)[C@@]3(O)C(=O)C1=C2O [minocycline]
difference in cell activity according to minocycline concentration [1]: difference in cell activity according to concentration of minocycline was not observed | growth of gingival fibroblast ([2]; 160 μg/ml to 2560 μg/ml): growth of gingival fibroblast was not inhibited | growth inhibition of gingival fibroblast ([2]; observation for 7 days): statistical singnificance about growth inhibitory of gingival fibroblast was not observed | break point of minocycline concentration to periodontal treatment [3]: 2 to 4 µg/mL | MIC ([3]; Aggregatibacter actinomycetemcomitans, read-out: concentration of minocycline at which susceptibility is shown): 2 to 4 µg/mL | tested bacilli that showed susceptibility [4]: 98%
